We go through eight compounds from patent US4672117A, “Antipsychotic gamma-carbolines” (American Home Products Corporation, priority 1985, dated 1987).

Series [1] concerns male CD rats. The experiment in a line: conditioned avoidance, lever-response (L-R). The format is in vivo. Conditions: rat; for L-R relative activity: lever-response conditioned avoidance; for ED50: po, lever-response, p.o., interval in brackets, read-out: L-R AB50 (50% block in avoidance responding). The text has this: (§1) The antipsychotic properties of the compounds of this invention were established by standard pharmacologically accepted procedures involving two conditioned avoidance studies in which trained male CD rats (Charles River), 400-450 gm body weight are exposed to a fifteen second warning tone (conditioned stimulus) continued for an additional fifteen seconds accompanied by electric shock. The rat can avoid the electric shock by depression of a response lever (lever-response) or in a different study by jumping to an exposed shelf (shelf-jump response). In either test situation, a response during the initial warning tone is considered an avoidance response while a response during shock delivery is considered an escape response. The avoidance response is determined and expressed as a percentage of total trials from an appropriate number of trials and a 50% block in avoidance responding (AB50) is obtained from a dose-effect regression line. All the data is based upon (mg/kg) dosing of the animals. The shelf-jump response test procedure follows that of Herman et al., Comm. in Psychopharm., 3, pp. 165-171 (1979).
(§2) The following examples illustrate the production of compounds of this invention. After each example the pharmacological evaluation for the compound produced is presented. The conditioned avoidance tests are reported as relative activity for the shelf-jump (S-J) at the intraperitoneal (i.p.) dose administered in mg/kg and the AB50 is presented for the lever-response (L-R) test at the oral (p.o.) dose in mg/kg. The inhibition constant is reported for limbic D-2 binding expressed in nM concentration.

Series [2] relates to male CD rats. Nature of the series: conditioned avoidance, shelf-jump response (S-J). In kind it is in vivo. Particulars: rat.
Text: as §1, §2

Series [3] deals with T1, limbic D-2 dopamine receptor (Rattus norvegicus, UniProt P61169).
T1 construct: from tissue
T1 sequence (P61169 whole entry): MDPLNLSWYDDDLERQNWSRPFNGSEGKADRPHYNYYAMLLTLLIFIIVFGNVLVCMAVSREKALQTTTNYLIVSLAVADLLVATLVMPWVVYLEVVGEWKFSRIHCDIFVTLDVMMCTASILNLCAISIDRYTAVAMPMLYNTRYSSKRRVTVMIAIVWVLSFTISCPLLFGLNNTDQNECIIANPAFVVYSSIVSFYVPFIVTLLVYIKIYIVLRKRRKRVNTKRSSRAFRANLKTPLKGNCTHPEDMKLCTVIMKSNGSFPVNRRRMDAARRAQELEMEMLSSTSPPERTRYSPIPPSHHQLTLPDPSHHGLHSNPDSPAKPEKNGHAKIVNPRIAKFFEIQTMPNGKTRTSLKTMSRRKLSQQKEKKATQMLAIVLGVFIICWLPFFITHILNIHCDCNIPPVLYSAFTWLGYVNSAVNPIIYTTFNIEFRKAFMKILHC
Nature of the series: limbic D-2 binding, 3H-spiroperidol, homogenized limbic brain tissue. Particulars: 95% confidence interval in brackets, read-out: Limbic D-2 inhibition constant (Ki). Here is the method: Binding in the presence of the test compound is expressed as a percent of specific binding (total binding less binding in the presence of 1 μM (+)butaclamol). An inhibition constant (Ki) is calculated for each test compound to categorize its limbic D-2 binding potential. The larger the number, the less potential for dopamine receptor binding and attendant side effects from administration of the antipsychotic agent.
as §2

Series [4] in a line: antagonism of apomorphine-induced stereotyped behavior. Conditions: mouse, in vivo, ip, CF-1 mice, 10 mg/kg apomorphine s.c. 30 min later; measure of extrapyramidal side effects; read-out: ED50 for inhibition of apomorphine-induced stereotyped behavior.

pKi: −log10 of the molar value.

The pKi is −log10 of the Ki, conventionally taken in molar units. With `Fc1ccc(-n2c3c(c4cc(F)ccc42)CN(CCc2ccccn2)CC3)cc1` [Example 1, 8-Fluoro-5-(4-fluorophenyl)-2,3,4,5-tetrahydro-2-[2-(2-pyridinyl)ethyl]-1H-pyrido[4,3-b]indole], the L-R relative activity result with male CD rats [1] (20 mg/kg p.o.) is “Active”. For the same compound, the ED50 in the series on male CD rats [1] came to 6.3 mg/kg. Further, the S-J relative activity entry with male CD rats [2] (20 mg/kg i.p.) was “Active”. In addition, in series [3], the pKi is 8.15.

On to `c1ccc(C2CN(CCCCc3ccncc3)Cc3c2[nH]c2ccccc32)cc1` (stereo not drawn) [Example 2, 2,3,4,5-Tetrahydro-4-phenyl-2-[4-(4-pyridinyl)butyl]-1H-pyrido[4,3-b]indole], for which the S-J relative activity entry with male CD rats [2] (20 mg/kg i.p.) is “Very weak”. Further, the pKi in series [3] was 6.39.

With `c1ccc(C2CN(CCCc3cccnc3)Cc3c2[nH]c2ccccc32)cc1` (stereo not drawn) [Example 3, 2,3,4,5-Tetrahydro-4-phenyl-2-[3-(3-pyridinyl)propyl]-1H-pyrido[4,3-b]indole], the pKi in series [3] was 6.85.

Regarding `c1ccc(C2CN(CCc3ccccn3)Cc3c2[nH]c2ccccc32)cc1` (stereo not drawn) [Example 4, 2,3,4,5-Tetrahydro-4-phenyl-2-[2-(2-pyridinyl)ethyl]-1H-pyrido[4,3-b]indole], the pKi in series [3] was 6.22.

For the compound `Fc1ccc(-n2c3c(c4cc(F)ccc42)CN(CCc2ccc4ccccc4n2)CC3)cc1` [Example 5, 8-Fluoro-5-(4-fluorophenyl)-2,3,4,5-tetrahydro-2-[2-(2-quinolinyl)ethyl]-1H-pyrido[4,3-b]indole], in the series on male CD rats [1] (40 mg/kg p.o.), the L-R relative activity entry was “Active”. The S-J relative activity entry with male CD rats [2] (40 mg/kg i.p.) was “Active”. Besides, the pKi in series [3] was 8.97. The ED50 in series [4] was found to be 1.62 mg/kg.

`Fc1ccc(-n2c3c(c4cc(F)ccc42)CN(CCCCc2ccccn2)CC3)cc1` [Example 6, 8-Fluoro-5-(4-fluorophenyl)-2,3,4,5-tetrahydro-2-[4-(2-pyridinyl)butyl]-2H-pyrido[4,3-b]indole]: in the series on male CD rats [2] (40 mg/kg i.p.), the S-J relative activity result is “Active”.

As for `Fc1ccc(-n2c3c(c4cc(F)ccc42)CN(CCc2ccncc2)CC3)cc1` [Example 7, 8-Fluoro-5-(4-fluorophenyl)-2,3,4,5-tetrahydro-2-[2-(4-pyridinyl)ethyl]-1H-pyrido[4,3-b]indole], the S-J relative activity entry in the series on male CD rats [2] (40 mg/kg i.p.) is reported as “Active”. Besides, the pKi in series [3] was 7.92.

Take `Fc1ccc(-n2c3c(c4cc(F)ccc42)CN(CCc2cnccn2)CC3)cc1` [Example 8, 8-Fluoro-5-(4-fluorophenyl)-2,3,4,5-tetrahydro-2-[2-(2-pyrazinyl)ethyl]-1H-pyrido[4,3-b]indole]: the L-R relative activity result in the series on male CD rats [1] (20 mg/kg p.o.) is on record as “Active”. In addition, the ED50 in the series on male CD rats [1] came to 15.2 mg/kg. Further, the S-J relative activity result in the series on male CD rats [2] (40 mg/kg i.p.) is recorded as “Very Active”.
